Test [1] has as its target T1, Estrogen receptor (Homo sapiens, UniProt Q92731+P03372). Kind of test: Affinity estrogen receptor of MCF-7 human mammary cancer cells. The format is cell-based. Particulars: mcf7.
The target of test [2] is T1, Estrogen receptor. Kind of test: (§1) Induction of pS2 mRNA expression in human MCF-7 mammary carcinoma cells. The format is functional, cell-based. Particulars: mcf7.
The target of test [3] is T1, Estrogen receptor. Briefly: Affinity for estrogen receptor. The format is protein assay.
The target in test [4] is T1, Estrogen receptor. The test is described as §1. The format is functional, cell-based. Particulars: mcf7. This is another data set of the same source.

As for `C[C@]12CC[C@@H]3c4cc(CO)c(O)cc4CC[C@H]3[C@@H]1CC[C@@H]2O`, the EC50 (in general, the concentration giving half of the maximal effect) on Estrogen receptor [1] amounted to 342 nM; at Estrogen receptor [2], 10.3 nM; on Estrogen receptor [3] it was 146 nM; on Estrogen receptor [4] it was 2.79 nM.
Turning to `C[C@]12CC[C@@H]3c4cc(CCO)c(O)cc4CC[C@H]3[C@@H]1CC[C@@H]2O`, the figures for the EC50 on Estrogen receptor [1] and on Estrogen receptor [2] were 4890 nM and 272 nM, respectively.
On the same counts, the results for `C[C@]12CC[C@@H]3c4cc(O)c(O)cc4CC[C@H]3[C@@H]1CC[C@@H]2O` are 1660 nM and 504 nM.
As to `C[C@]12CC[C@@H]3c4cc(CCCO)c(O)cc4CC[C@H]3[C@@H]1CC[C@@H]2O`, the results for the EC50 at Estrogen receptor [1], on Estrogen receptor [2] and on Estrogen receptor [4] were 5220 nM, 495 nM and 0.004 nM, respectively.
For `C[C@]12CC[C@@H]3c4cc(C=O)c(O)cc4CC[C@H]3[C@@H]1CC[C@@H]2O`, at Estrogen receptor [1], the concentration giving a half-maximal response (EC50) was determined as 782 nM.
